Results reported in article PMC13619113 (Journal of controlled release : official journal of the …, 2023).

How the values were obtained:
[1] = test system: Sprague-Dawley rats; test: Blood glucose response after subcutaneous administration; format: in vivo, rat; details: subcutaneous 1 IU/kg, fasted Sprague-Dawley rats, Fig. 7
[2] = test system: 50:50 coculture of Caco-2:HT29-MTX cells
[3] = test system: Sprague-Dawley rats; test: Blood glucose response after intestinal closed-loop; format: in vivo, rat
[4] = rat, in vivo

Substance	effect on blood glucose level [1]	Papp × 10^−9 (cm/s) [2]	increase of the pharmacological availability over insulin ([3]; 50 IU/kg to the small intestine, rat) [times]	effect on blood glucose level ([3]; 50 IU/kg delivered directly to the ileum, Fig. 8)	AUC [4] [µg·h/mL]	BA (%) [4] [%]
1KPI: bovine insulin conjugated with 1000 da PEG via PEG nitrophenyl carbonate	effective at reducing the glucose levels below baseline throughout the testing period	3.28 ± 0.88 × 10^−9 cm/s				
2KPI: bovine insulin conjugated with 2000 da PEG via PEG nitrophenyl carbonate, 1:1, at LysB29		2.90 ± 0.86 × 10^−9 cm/s	2.8			
5KPI: bovine insulin conjugated with 5000 da PEG via PEG nitrophenyl carbonate	least effect of the PEGylated insulin samples on blood glucose levels	2.44 ± 0.06 × 10^−9 cm/s				
Bovine insulin	effective at reducing the glucose levels below baseline throughout the testing period			limited hypoglycemic response	12.61 ± 9.85	1.064 ± 0.83
